The subject of one data set is HEK293. Description: (§1) Cytotoxicity against HEK293 cells. The conditions noted are these: human, hek293. It counts as cell-based.
A further data set relates to Escherichia coli. Briefly: Antibacterial activity against Escherichia coli ATCC 47076 assessed as bacterial growth inhibition. The format is functional.
Data set [1] has as its system Klebsiella pneumoniae. Briefly: Antibacterial activity against Klebsiella pneumoniae ATCC 10031 assessed as bacterial growth inhibition. It counts as functional.
Data set [2] deals with Acinetobacter baumannii. Briefly: Antibacterial activity against Acinetobacter baumannii ATCC 19606 assessed as bacterial growth inhibition. It counts as functional. The conditions noted are these: ATCC 19606 = CIP 70.34 = JCM 6841.
Data set [3] deals with Pseudomonas aeruginosa. Briefly: Antibacterial activity against Pseudomonas aeruginosa ATCC 27853 assessed as bacterial growth inhibition. It counts as functional.
Data set [4] concerns Klebsiella pneumoniae. Briefly: Antibacterial activity against Klebsiella pneumoniae ATCC 700721 assessed as bacterial growth inhibition. It counts as functional.
The test system of data set [5] is Klebsiella pneumoniae. Briefly: Antibacterial activity against Klebsiella pneumoniae JCM 1662 assessed as bacterial growth inhibition. The format is functional.
The subject of data set [6] is Pseudomonas aeruginosa. Description: Antibacterial activity against Pseudomonas aeruginosa ATCC 15692 assessed as bacterial growth inhibition. The format is functional.
Data set [7] relates to Klebsiella pneumoniae. Description: Antibacterial activity against Klebsiella pneumoniae IHMA 1387833 assessed as bacterial growth inhibition. It counts as functional.
In data set [8] the test system is Acinetobacter baumannii. Briefly: Antibacterial activity against Acinetobacter baumannii IHMA 1312713 assessed as bacterial growth inhibition. It counts as functional.
The test system of data set [9] is Pseudomonas aeruginosa. Description: Antibacterial activity against Pseudomonas aeruginosa IHMA 1375891 assessed as bacterial growth inhibition. It counts as functional.
Data set [10] can be described thus: as §1. The note with it: human, HEK293 cells. It counts as cell-based.
For the next data set, the system named is HepG2. Description: Cytotoxicity against human HepG2 cells. The format is functional.
Data set [11] in a line: Lipophilicity, logD of compound. It counts as physicochemical. The conditions noted are these: octanol/water.

From ChEMBL document CHEMBL4819127, “Syntheses and antimicrobial activities of ogipeptin derivatives” (Bioorg Med Chem Lett, 2021) come the findings set out here.

Values after ≈ are worked out from the molar mass of the structure shown. A value given as a limit tells only on which side of the number the result lay.

COLISTIN gave a CC50 in the data set on HEK293 greater than 64 µM.

Turning to `C/C=C1\NC(=O)C(NC(=O)CCCCCCCCC)C(O)CNC(=O)C(C(O)CN)NC(=O)C(C(O)CN)NC(=O)[C@H](CCCNC(=N)N)NC(=O)[C@H](CC(C)C)NC(=O)[C@H](CCN)NC1=O` (stereo not given in full), the MIC is 2 µg/mL (≈ 2.09 µM) in the data set on Escherichia coli; 1 µg/mL (≈ 1.05 µM) in the data set on Klebsiella pneumoniae [1]; 2 µg/mL (≈ 2.09 µM) in the data set with Acinetobacter baumannii [2]; 4 µg/mL (≈ 4.19 µM) with Pseudomonas aeruginosa [3]; greater than 256 µg/mL in the data set with Klebsiella pneumoniae [4]; greater than 256 µg/mL in the data set with Klebsiella pneumoniae [5]. Moreover, the MIC was 64 µg/mL (≈ 67 µM) in the data set with Pseudomonas aeruginosa [6], greater than 256 µg/mL with Klebsiella pneumoniae [7], greater than 256 µg/mL with Acinetobacter baumannii [8] and 128 µg/mL (≈ 134 µM) in the data set on Pseudomonas aeruginosa [9]. For the same molecule, the CC50 (in [10]; with HepG2) was greater than 64 µM each time. In data set [11], the logD is reported as 3.756.

As to `C/C=C1\NC(=O)C(NC(=O)c2ccc(Oc3ccccc3CCCC)cc2)C(O)CNC(=O)C(C(O)CN)NC(=O)C(C(O)CN)NC(=O)[C@H](CCCNC(=N)N)NC(=O)[C@H](CC(C)C)NC(=O)[C@H](CCN)NC1=O` (stereo not given in full), the MIC is 2 µg/mL (≈ 1.9 µM) with Escherichia coli; 4 µg/mL (≈ 3.8 µM) in the data set on Klebsiella pneumoniae [1]; 2 µg/mL (≈ 1.9 µM) in the data set on Acinetobacter baumannii [2]; 4 µg/mL (≈ 3.8 µM) with Pseudomonas aeruginosa [3]; 4 µg/mL (≈ 3.8 µM) in the data set on Klebsiella pneumoniae [4]; 4 µg/mL (≈ 3.8 µM) in the data set on Klebsiella pneumoniae [5]. In addition, the MIC is 64 µg/mL (≈ 60.8 µM) in the data set on Pseudomonas aeruginosa [6], greater than 256 µg/mL in the data set on Klebsiella pneumoniae [7], 8 µg/mL (≈ 7.6 µM) with Acinetobacter baumannii [8] and 64 µg/mL (≈ 60.8 µM) in the data set on Pseudomonas aeruginosa [9]. Moreover, the CC50 (in data set [10]; in the data set with HepG2) was greater than 64 µM throughout. In data set [11], this molecule yielded a logD of 4.984.

For `C/C=C1\NC(=O)C(NC(=O)COc2ccc(/C=C/C(=O)OC(C)(C)C)cc2)C(O)CNC(=O)C(C(O)CN)NC(=O)C(C(O)CN)NC(=O)[C@H](CCCNC(=N)N)NC(=O)[C@H](CC(C)C)NC(=O)[C@H](CCN)NC1=O` (stereo not given in full), the minimum inhibitory concentration (MIC) is 2 µg/mL (≈ 1.88 µM) with Escherichia coli; 2 µg/mL (≈ 1.88 µM) with Klebsiella pneumoniae [1]; 2 µg/mL (≈ 1.88 µM) with Acinetobacter baumannii [2]; 4 µg/mL (≈ 3.77 µM) with Pseudomonas aeruginosa [3]; 2 µg/mL (≈ 1.88 µM) in the data set with Klebsiella pneumoniae [4]; greater than 256 µg/mL with Klebsiella pneumoniae [5]. The minimum inhibitory concentration (MIC) in the data set on Pseudomonas aeruginosa [6] was 8 µg/mL (≈ 7.54 µM); with Klebsiella pneumoniae [7] it was greater than 256 µg/mL; in the data set on Acinetobacter baumannii [8], 128 µg/mL (≈ 121 µM); in the data set on Pseudomonas aeruginosa [9], 128 µg/mL (≈ 121 µM). The CC50 (in data set [10]; with HepG2) was greater than 64 µM in each case. In [11], the logD was 2.65.
